Measured values reported in publication PMC9749936, “Synthesis and structure–activity relationship studies of N-terminal analogues of the lipopeptide antibiotics brevicidine and laterocidine” (RSC Medicinal Chemistry, 2022).
Bridge positions count the residues as written; N and C are the ends. Square brackets hold non-standard residues; d marks the D form. Peptide text beside a SMILES is read from it. * marks the point of attachment. Palmitoyl = CCCCCCCCCCCCCCCC(=O)*; Lauroyl = CCCCCCCCCCCC(=O)*; Decanoyl = CCCCCCCCCC(=O)*; dOrn = NCCC[C@@H](N)C(=O)O; Orn = NCCC[C@H](N)C(=O)O; Hexanoyl = CCCCCC(=O)*; Butyryl = CCCC(=O)*

How the values were obtained:
E. coli ATCC 25922 MCR-1 = format: cell-based, Escherichia coli; conditions: colistin-resistant strain carrying mcr-1; CLSI broth microdilution in MHB, 18 h at 37 °C, visual inspection; three technical replicates
P. aeruginosa PAO1 = format: cell-based, Pseudomonas aeruginosa; conditions: PAO1, 18 h
Outline: (§1)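 Broth microdilution MIC per CLSI guidelines in MHB, with compound from DMSO stocks serially diluted in polypropylene plates.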

E. coli ATCC 25922 = format: cell-based, Escherichia coli; conditions: ATCC 25922, 18 h
Outline: as §1

K. pneumoniae ATCC 13883 = format: cell-based, Klebsiella pneumoniae; conditions: ATCC 13883, 18 h
Outline: as §1

S. aureus USA300 = format: cell-based, Staphylococcus aureus; conditions: USA300, 18 h
Outline: as §1

Sheep red blood cells = format: cell-based; conditions: red cells of sheep, 1 h, 64 μg mL^−1
A. baumannii ATCC 17961 = format: cell-based, Acinetobacter baumannii; conditions: ATCC 17961, 18 h
Outline: as §1

SMILES	Antimicrobial activity (MIC) E. coli ATCC 25922 MCR-1 (E. coli ATCC 25922 MCR-1) [mg/L]	Antimicrobial activity (MIC) P. aeruginosa PAO1 (P. aeruginosa PAO1) [mg/L]	Antimicrobial activity (MIC) E. coli ATCC 25922 (E. coli ATCC 25922) [mg/L]	Antimicrobial activity (MIC) K. pneumoniae ATCC 13883 (K. pneumoniae ATCC 13883) [mg/L]	Antimicrobial activity (MIC) S. aureus USA300 (S. aureus USA300) [mg/L]	% Hemolytic activity, sheep red blood cells (Sheep red blood cells) [%]	Antimicrobial activity (MIC) A. baumannii ATCC 17961 (A. baumannii ATCC 17961) [mg/L]
CC[C@H](C)[C@@H]1NC(=O)[C@@H](NC(=O)[C@H](Cc2c[nH]c3ccccc23)NC(=O)[C@@H](CCCN)NC(=O)CNC(=O)[C@H](CCCN)NC(=O)[C@@H](CCCN)NC(=O)[C@@H](Cc2c[nH]c3ccccc23)NC(=O)[C@@H](Cc2ccc(O)cc2)NC(=O)[C@@H](CO)NC(C)=O)[C@@H](C)OC(=O)CNC(=O)CNC(=O)[C@H](CC(N)=O)NC1=O [Compound 19] (Ac-[dS][dY][dW][dOrn][Orn]G[dOrn]WTINGG; ester 9-C)	>32	16	>32	>32	>32	0.2	>32
CCCC(=O)N[C@H](CO)C(=O)N[C@H](Cc1ccc(O)cc1)C(=O)N[C@H](Cc1c[nH]c2ccccc12)C(=O)N[C@H](CCCN)C(=O)N[C@@H](CCCN)C(=O)NCC(=O)N[C@H](CCCN)C(=O)N[C@@H](Cc1c[nH]c2ccccc12)C(=O)N[C@@H]1C(=O)N[C@@H]([C@@H](C)CC)C(=O)N[C@@H](CC(N)=O)C(=O)NCC(=O)NCC(=O)O[C@@H]1C [Compound 20] (Butyryl-[dS][dY][dW][dOrn][Orn]G[dOrn]WTINGG; ester 9-C)	32	8	16	32	>32	0.3	>32
CCCCCC(=O)N[C@H](CO)C(=O)N[C@H](Cc1ccc(O)cc1)C(=O)N[C@H](Cc1c[nH]c2ccccc12)C(=O)N[C@H](CCCN)C(=O)N[C@@H](CCCN)C(=O)NCC(=O)N[C@H](CCCN)C(=O)N[C@@H](Cc1c[nH]c2ccccc12)C(=O)N[C@@H]1C(=O)N[C@@H]([C@@H](C)CC)C(=O)N[C@@H](CC(N)=O)C(=O)NCC(=O)NCC(=O)O[C@@H]1C [Compound 21] (Hexanoyl-[dS][dY][dW][dOrn][Orn]G[dOrn]WTINGG; ester 9-C)	8	4	4	8	>32	0.2	16
CCCCCCCCCC(=O)N[C@H](CO)C(=O)N[C@H](Cc1ccc(O)cc1)C(=O)N[C@H](Cc1c[nH]c2ccccc12)C(=O)N[C@H](CCCN)C(=O)N[C@@H](CCCN)C(=O)NCC(=O)N[C@H](CCCN)C(=O)N[C@@H](Cc1c[nH]c2ccccc12)C(=O)N[C@@H]1C(=O)N[C@@H]([C@@H](C)CC)C(=O)N[C@@H](CC(N)=O)C(=O)NCC(=O)NCC(=O)O[C@@H]1C [Compound 23] (Decanoyl-[dS][dY][dW][dOrn][Orn]G[dOrn]WTINGG; ester 9-C)	2	2	2	2 to 4	>32	2.1	2
CCCCCCCCCCCC(=O)N[C@H](CO)C(=O)N[C@H](Cc1ccc(O)cc1)C(=O)N[C@H](Cc1c[nH]c2ccccc12)C(=O)N[C@H](CCCN)C(=O)N[C@@H](CCCN)C(=O)NCC(=O)N[C@H](CCCN)C(=O)N[C@@H](Cc1c[nH]c2ccccc12)C(=O)N[C@@H]1C(=O)N[C@@H]([C@@H](C)CC)C(=O)N[C@@H](CC(N)=O)C(=O)NCC(=O)NCC(=O)O[C@@H]1C [Compound 24] (Lauroyl-[dS][dY][dW][dOrn][Orn]G[dOrn]WTINGG; ester 9-C)	4	8	4	8	32	21.5	2
CCCCCCCCCCCCCCCC(=O)N[C@H](CO)C(=O)N[C@H](Cc1ccc(O)cc1)C(=O)N[C@H](Cc1c[nH]c2ccccc12)C(=O)N[C@H](CCCN)C(=O)N[C@@H](CCCN)C(=O)NCC(=O)N[C@H](CCCN)C(=O)N[C@@H](Cc1c[nH]c2ccccc12)C(=O)N[C@@H]1C(=O)N[C@@H]([C@@H](C)CC)C(=O)N[C@@H](CC(N)=O)C(=O)NCC(=O)NCC(=O)O[C@@H]1C [Compound 26] (Palmitoyl-[dS][dY][dW][dOrn][Orn]G[dOrn]WTINGG; ester 9-C)	32	32	32	>32	32	46.1	4
